Measurements published in PMC5618426, “APETx4, a Novel Sea Anemone Toxin and a Modulator of the Cancer-Relevant Potassium Channel KV10.1” (Marine Drugs, 2017).
Several values for one entry are separate records, joined by “and”; a condition that tells them apart may be missing. Equal entries are not always repeated. Where two headings read alike, the source gives them in different places. Positions of bridges follow the written chain, without caps; N, C: chain ends. No end group written: not given here.

Columns and labels:
[1] = biological target: hKV10.1a (hEag1) (Homo sapiens, UniProt O95259); assay: two-electrode voltage clamp, KV10.1 in Xenopus laevis oocytes; assay type: cell-based
Protocol: For the expression of the ion channels (rNaV1.4, hNaV1.5, mNaV1.6, hKV1.1, rKV1.3, hKV1.4, hKV1.5, hKV2.1, hKV10.1a and hKV11.1,) in Xenopus oocytes, the plasmids were linearized and subsequently transcribed using the T7 or SP6 mMESSAGE-mMACHINE transcription kit (Ambion®, Carlsbad, CA, USA).
Stage V-VI Xenopus laevis oocytes were isolated by partial ovariectomy. The animals were anesthetized by a 15 min submersion in 0.1% tricaine methane sulfonate (pH 7.0). Isolated oocytes were defolliculated with 2 mg/mL collagenase.
Defolliculated oocytes were injected with 50 nL of cRNA at a concentration of 1 ng/nL using a micro-injector (Drummond Scientific®, Broomall, PA, USA). The oocytes were incubated in a solution containing (in mM): NaCl, 96; KCl, 2; CaCl2, 1.8; MgCl2, 2 and HEPES, 5 (pH 7.4), supplemented with 50 mg/L gentamycin sulfate.
Two-electrode voltage-clamp recordings were performed at room temperature (18–22 °C) using an Geneclamp 500B Voltage and Patch Clamp Amplifier (Axon Instruments, Union City, CA, USA, controlled by a Axon Digidata 1550 Low-Noise Data Acquisition System (Axon Instruments). Whole cell currents from oocytes were recorded 1–4 days after injection. The normal bath solution (ND96) composition was (in mM): NaCl, 96; KCl, 2; CaCl2, 1.8; MgCl2, 2 and HEPES, 5 (pH 7.4). The high potassium solution (HK) composition was in mM): NaCl, 2; KCl, 96; CaCl2, 1.8; MgCl2, 2 and HEPES, 5 (pH 7.4). Voltage and current electrodes were filled with 3 M KCl. Resistances of both electrodes were kept between 0.5 and 1.5 MΩ. The elicited KV1.x end KV2.1 currents were filtered at 500 Hz and sampled at 2 kHz, KV10.1 currents were filtered at 1 kHz and sampled at 2 kHz, hERG currents were filtered at 1 kHz and sampled at 10 kHz and the sodium currents were filtered at 2 kHz and sampled at 20 kHz using a four-pole low-pass Bessel filter. Leak subtraction was performed using a -P/4 protocol.
KV10.1 currents were evoked by 2 s depolarizing pulses to 0 mV from a holding potential of −90 mV. KV11.1 (hERG) peak and tail currents were generated by a 2.5 s prepulse from −90 mV to 40 mV followed by a 2.5 s pulse to −120 mV. KV1.x channel currents were evoked by 500 ms depolarizations to 0 mV from a holding potential of −90 mV followed by a 500 ms pulse to −50 mV. KV2.1 currents were elicited by 500 ms pulses to +20 mV from a holding potential of −90 mV. NaV currents were evoked by a 100 ms depolarizations to 0 mV from the holding potential.
[…]. The curve was fitted with the logistic dose-response equation, y = A1−A2/1+ (IC50/[toxin])^nH + A2 where y represents the percentage of current inhibition, A1 the initial inhibition at the lowest toxin concentration (0%), A2 the final inhibition at the highest toxin concentration, IC50 the half maximal inhibitory toxin concentration and ^nH the Hill coefficient.
The voltage-dependent activation of the KV10.1 channels was investigated by 1000 ms activating steps from the holding potential −90 mV to 65 mV with 5 mV increments. The normalized current amplitudes were plotted against the corresponding pulse potentials and fitted with the Boltzmann equation, y = A1−A2/1+ e^(V−V1/2)/k + A2, where y represents the normalized current (I/Imax), A1 is the initial y-value(-∞) and A2 is the final y-value, Imax is the maximal current, V is the test voltage, V1/2 is the half-maximal voltage and k is the slope factor.
The voltage-dependent inactivation of KV10.1 channels was studied by 1.5 s prepulses from the holding potential ranging from −140 mV to 30 mV with 10 mV steps. These pulses were followed by a 0.5 s test pulse to 30 mV [17]. The normalized peak current amplitudes (I2/I2,max) measured during the test pulse and were plotted against the prepulses and fitted with the Boltzmann equation.
All electrophysiological data are presented as means ± S.E.M of n ≥ 3 independent experiments unless otherwise indicated. […]

[2] = test system: hTERT RPE-1; assay: proliferation (IncuCyte confluency); assay type: cell-based, human; conditions: cell confluency (%) over time, n = 4 wells
Protocol: (§1) The cell proliferation was quantified in terms of cell confluency (%) over time; data points were collected every hour. […] LNCaP, it is presumed that the observed effect cannot only be attributed to KV10.1 inhibition (Figure S5).
(§2) Cell lines SH-SY5Y (ACC 209), LNCaP (ACC 256) and NIH-3T3 (ACC 59) were purchased from DSMZ (Germany). MDA-MB-435S (HTB 129) and hTERT RPE-1 (CRL 4000) were obtained from ATCC (USA). Cell lines were cultured in their recommended media supplemented with 10% or 15% FCS (PAA laboratories, Cölbe, Germany) at 37 °C in humidified 5% CO2 atmosphere. All media were purchased from ThermoFisher Scientific (Waltham, MA, USA).
(§3) Cell proliferation, cytotoxicity and apoptosis were assessed in a 96-well microtiter plate by live-cell imaging using an IncuCyte Zoom System (Essen BioScience, Welwyn Garden City, UK). Cell proliferation was monitored in terms of cell confluency (%). Cell cytotoxicity was assessed by the CellTox Green Dye assay (Promega, Madison, WI, USA). The IncuCyte Caspase-3/7 apoptosis assay (Essen BioScience, UK) was used to evaluate the effect of APETx4 on the apoptotic pathway.
(§4) Live-cell imaging data were collected from the IncuCyte Zoom software and analyzed using GraphPad Prism 6 software. Proliferation was measured as Phase Object Confluence (%), cytotoxicity and apoptosis were measured as Green Object Count (1/mm²). Data points were collected every hour. In order to improve the clarity of the graphs, only the data points for every 5 h are shown. All data are represented as mean ± S.E.M of n = 4 different wells.

[3] = test system: SH-SY5Y; assay: proliferation (IncuCyte confluency); assay type: cell-based, human; conditions: cell confluency (%) over time, n = 4 wells
Protocol: as §1, §2, §3, §4

[4] = test system: LNCaP; assay: proliferation (IncuCyte confluency); assay type: cell-based, human; conditions: cell confluency (%) over time, n = 4 wells
Protocol: as §1, §2, §3, §4

[5] = concentration-response curve, logistic fit

Chain of hKV10.1a (hEag1) (O95259 other isoform, or with tags, fused parts or gaps): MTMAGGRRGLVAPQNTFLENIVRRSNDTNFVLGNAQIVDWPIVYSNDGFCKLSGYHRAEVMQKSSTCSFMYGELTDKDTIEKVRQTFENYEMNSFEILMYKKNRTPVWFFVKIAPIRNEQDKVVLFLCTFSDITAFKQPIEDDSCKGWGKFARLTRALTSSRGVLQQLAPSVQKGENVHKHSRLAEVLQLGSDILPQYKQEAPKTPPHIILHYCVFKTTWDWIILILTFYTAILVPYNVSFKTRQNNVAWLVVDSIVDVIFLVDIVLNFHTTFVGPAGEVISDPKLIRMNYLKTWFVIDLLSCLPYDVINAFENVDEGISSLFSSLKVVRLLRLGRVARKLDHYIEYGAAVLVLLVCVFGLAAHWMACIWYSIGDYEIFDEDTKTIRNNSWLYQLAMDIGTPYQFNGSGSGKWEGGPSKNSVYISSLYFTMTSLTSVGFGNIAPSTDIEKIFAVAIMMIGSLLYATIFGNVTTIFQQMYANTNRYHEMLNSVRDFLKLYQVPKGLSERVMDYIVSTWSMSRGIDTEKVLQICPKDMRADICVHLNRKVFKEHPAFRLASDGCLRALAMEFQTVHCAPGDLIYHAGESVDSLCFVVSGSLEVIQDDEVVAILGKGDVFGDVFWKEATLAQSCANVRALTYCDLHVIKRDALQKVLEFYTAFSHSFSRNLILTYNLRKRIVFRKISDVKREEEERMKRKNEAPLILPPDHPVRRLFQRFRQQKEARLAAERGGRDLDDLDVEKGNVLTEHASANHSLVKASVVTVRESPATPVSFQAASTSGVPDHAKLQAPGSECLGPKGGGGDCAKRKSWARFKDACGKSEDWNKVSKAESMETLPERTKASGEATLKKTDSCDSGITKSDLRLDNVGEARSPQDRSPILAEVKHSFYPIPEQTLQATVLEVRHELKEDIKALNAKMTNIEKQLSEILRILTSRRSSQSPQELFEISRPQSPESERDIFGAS

“GTTCYCGKTIGIYWFGKYSCPTNRGYTGSCPYFLGICCYPVD (disulfide 4-37, 6-30, 20-38) [APETx4]” was tested, and the “inhibition of the outward KV10.1 current” value ([1]; 1.6 µM APETx4, 2 s pulse to 0 mV from −90 mV, ND96, pH 7.4, 18–22 °C, mean ± SEM, n = 3) was “highest activity on KV10.1”, the inhibition at 1.6 µM ([1]; 1.6 µM APETx4, 2 s pulse to 0 mV from −90 mV, ND96, pH 7.4, 18–22 °C, mean ± SEM, n = 3, read-out: inhibition of the outward KV10.1 current) was 76 ± 2% and the “slope factor of activation” value ([1]; 1.6 µM APETx4, HK solution (96 mM Ko), control 15.3 ± 1.4, n = 3, NS) was 13.9 ± 0.8. For the same sequence, the “half-maximal voltage V1/2 of activation” value ([1]; 1.6 µM APETx4, HK solution (96 mM Ko), control 41.3 ± 1.4 mV, n = 3) was 50.9 ± 0.8 mV, the “shift of V1/2” value ([1]; 1.6 µM APETx4, HK solution (96 mM Ko), n = 3, p < 0.05) was 9.6 ± 1.7 mV and the “shift of the activation curve towards more positive potentials” value ([1]; 1.6 µM APETx4, ND96 (2 mM Ko), Boltzmann fit, n = 3, p < 0.05) was 17.7 ± 1.1 mV. For the same sequence, the “slope factor k of activation” value ([1]; 1.6 µM APETx4, ND96 (2 mM Ko), control 20.7 ± 0.6 mV, n = 3, p < 0.05) was 17.2 ± 0.3 mV, the “half-maximal voltage V1/2 of activation” value ([1]; 1.6 µM APETx4, ND96 (2 mM Ko), control 26.4 ± 0.9 mV, n = 3, p < 0.05) was 44.1 ± 0.7 mV and the “rise time tr (10% to 90%)” value ([1]; 1.6 µM APETx4, control 653 ± 42 ms, n = 3, p < 0.05) was 1246 ± 96 ms. The “time constant τ of KV10.1 activation” value ([1]; 1.6 µM APETx4, exponential fit, control 376 ± 60 ms, n = 3, p < 0.05) was 1209 ± 229 ms, the “reduction of KV10.1 current, pulse to 65 mV” value ([1]; 1.6 μM APETx4, from the holding potential, non-normalized inhibited current (1-It/Ic)) was 29 ± 6% and the “current reduction upon first stimulation after closed-state incubation” value ([1]; 1.6 µM APETx4, held at −90 mV for 10 min during addition, pulse to 0 mV, versus control current) was 85.2 ± 1.9%. The inhibition at 1.6 µM ([1]; 1.6 μM APETx4, non-normalized inhibited current (1-It/Ic), read-out: inhibition of KV10.1 current, pulse −90 mV to 0 mV) was 79 ± 4%, the “time constant τ of onset of inhibition (normalized current decrease)” value ([1]; 1.6 µM APETx4, one phase decay fit of I/Imax versus incubation time) was 97 ± 7 s and the “voltage dependence of current inhibition” value ([1]; 1.6 μM APETx4, reduced inhibition at more positive potentials, HK solution) was “a similar effect was observed”. For the same sequence, the IC50 ([1]; 7 concentrations, logistic fit, 2 s pulse to 0 mV from −90 mV, ND96, mean ± SEM, n ≥ 3, read-out: IC50 for KV10.1 current inhibition) was 1010 ± 10 nM, the “inward current at negative pulse potentials” value ([1]; HK solution (96 mM Ko), after toxin addition (1.6 µM)) was “no inward currents were observed” and the Hill coefficient [1, 5] was 3.8 ± 0.3 and ~ 4. The maximal current inhibition [1, 5] was 88.3 ± 0.9%, the “inactivation properties of KV10.1” value ([1]; two-pulse protocol, prepulse −140 to 30 mV, test pulse 30 mV, control or toxin condition) was “No apparent inactivation was observed” and the antiproliferative effect [2] was “concentration-dependent antiproliferative effect”. The antiproliferative effect [3] was “concentration-dependent antiproliferative effect” and the antiproliferative effect [4] was “concentration-dependent antiproliferative effect”.
